Measurements taken from ChEMBL document CHEMBL1201862, “PubChem BioAssay data set” (2004).
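Exposure lasted 48 hours, with cells grown in 96-well plates and compounds tested at five concentrations. The concentration for 50% growth inhibition is given as GI50.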 Calls of active or inactive are those of the source. Rule as the data show it: active = GI50 up to about 1.1 µM and inactive = higher.

Legend:
Experiment in all cases: DTP human tumour cell line panel, 48 h
M19-MEL = tested on: M19-MEL
SNB-78 = tested on: SNB-78
KM-20L2 = tested on: KM-20L2
XF498 = tested on: XF498
LXFL 529 = tested on: LXFL 529
HOP-18 = tested on: HOP-18
DMS-273 = tested on: DMS-273
RXF 631 = tested on: RXF 631
DLD-1 = tested on: DLD-1

Measured: GI50

C=C1C(=O)OC2/C=C(\C)C(O)/C=C\C(C)(O)CC(OC(=O)/C(C)=C/C)C12 (stereo unspecified)
inactive: M19-MEL 17.5 µM | SNB-78 34.2 µM | KM-20L2 13.2 µM | XF498 29.9 µM | LXFL 529 15.3 µM | HOP-18 > 74.8 µM | DMS-273 16.7 µM | RXF 631 38.2 µM | DLD-1 13.2 µM

C[C@]12CCc3nonc3C1CC[C@@H]1C2CC[C@@]2(C)C1CC[C@@H]2O (stereo partly specified)
inactive: M19-MEL > 100 µM | SNB-78 > 100 µM | KM-20L2 > 100 µM | XF498 > 100 µM | LXFL 529 > 100 µM | HOP-18 > 100 µM | DMS-273 > 100 µM | RXF 631 > 100 µM | DLD-1 > 100 µM

FC(F)(F)c1nc(Br)[nH]c1C(F)(F)F
inactive: M19-MEL > 100 µM | SNB-78 > 100 µM | KM-20L2 64.6 µM | XF498 > 100 µM | LXFL 529 92.3 µM | HOP-18 28.8 µM | DMS-273 > 100 µM | RXF 631 61.4 µM | DLD-1 > 100 µM

COC(=O)C(C(=O)C(=O)Nc1cccc([N+](=O)[O-])c1)c1nc2ccc([N+](=O)[O-])cc2nc1O (stereo unspecified)
inactive: M19-MEL > 100 µM | SNB-78 > 100 µM | KM-20L2 > 100 µM | XF498 > 100 µM | LXFL 529 > 100 µM | HOP-18 > 100 µM | DMS-273 > 100 µM | RXF 631 > 100 µM | DLD-1 > 100 µM
